We go through 11 molecules from paper PMC6053381, “Novel 2-phenyloxypyrimidine derivative induces apoptosis and autophagy via inhibiting PI3K pathway and activating MAPK/ERK signaling in hepatocellular carcinoma cells” (Scientific Reports, 2018).

One test concerns the target PDGFRα (Homo sapiens, UniProt P16234). The experiment in a line: PDGFR kinase assay, Caliper microfluidic mobility shift. Format: biochemical. The note with it: compound at 1 µM; averages of two separate experiments. Here is the method:
(§1) In vitro inhibitory activities of all compounds at 1 μM against PDGFRα and PDGFRβ were evaluated using Caliper microfluidic mobility shift technology. […] At the same concentration, only E5 inhibited greater than 50% of PDGFRβ activity (Fig. 2B).
(§2) PDGFR kinase activity was measured using Caliper microfluidic mobility shift technology. Briefly, 2 μL compound solution (25 μM) in 25% DMSO per well were added into the 384 well microtiter plates. Then, 10 μL per well of enzyme solution (100 mM HEPES, 10 mM MgCl2, Brij35 (30%) 100 μL, 1 mM DTT, 20 ng enzyme) was added. After a brief centrifugation at 1,000 rpm, the kinase reactions were started by addition of 38 μL per well of peptide/ATP-solution (40 μM ATP, 6.5 μM peptide 5′-FAM-KKKKEEIYFFF-NH2, Tris-HCl buffer, pH 7.0) incubated at 30 °C for 60 min and stopped by the addition of 20 μL 35 mM EDTA per well. The electrophoretic separation of the phosphorylated and non-phosphorylated peptides was then carried out on LabChip EZ Reader II (Caliper Life Sciences). All other kinase reactions were carried out as previously reported using the Kinase-Glo Plus or ADP-Glo assay. Kinase inhibition rates were calculated per manufacturer’s instructions.

Another test deals with PDGFRβ (Homo sapiens, UniProt P09619). The test is described as above. It is filed as biochemical. The note with it: compound at 1 µM; averages of two separate experiments. The method, then: as §1, §2
Chain of PDGFRβ (P09619 33-1106): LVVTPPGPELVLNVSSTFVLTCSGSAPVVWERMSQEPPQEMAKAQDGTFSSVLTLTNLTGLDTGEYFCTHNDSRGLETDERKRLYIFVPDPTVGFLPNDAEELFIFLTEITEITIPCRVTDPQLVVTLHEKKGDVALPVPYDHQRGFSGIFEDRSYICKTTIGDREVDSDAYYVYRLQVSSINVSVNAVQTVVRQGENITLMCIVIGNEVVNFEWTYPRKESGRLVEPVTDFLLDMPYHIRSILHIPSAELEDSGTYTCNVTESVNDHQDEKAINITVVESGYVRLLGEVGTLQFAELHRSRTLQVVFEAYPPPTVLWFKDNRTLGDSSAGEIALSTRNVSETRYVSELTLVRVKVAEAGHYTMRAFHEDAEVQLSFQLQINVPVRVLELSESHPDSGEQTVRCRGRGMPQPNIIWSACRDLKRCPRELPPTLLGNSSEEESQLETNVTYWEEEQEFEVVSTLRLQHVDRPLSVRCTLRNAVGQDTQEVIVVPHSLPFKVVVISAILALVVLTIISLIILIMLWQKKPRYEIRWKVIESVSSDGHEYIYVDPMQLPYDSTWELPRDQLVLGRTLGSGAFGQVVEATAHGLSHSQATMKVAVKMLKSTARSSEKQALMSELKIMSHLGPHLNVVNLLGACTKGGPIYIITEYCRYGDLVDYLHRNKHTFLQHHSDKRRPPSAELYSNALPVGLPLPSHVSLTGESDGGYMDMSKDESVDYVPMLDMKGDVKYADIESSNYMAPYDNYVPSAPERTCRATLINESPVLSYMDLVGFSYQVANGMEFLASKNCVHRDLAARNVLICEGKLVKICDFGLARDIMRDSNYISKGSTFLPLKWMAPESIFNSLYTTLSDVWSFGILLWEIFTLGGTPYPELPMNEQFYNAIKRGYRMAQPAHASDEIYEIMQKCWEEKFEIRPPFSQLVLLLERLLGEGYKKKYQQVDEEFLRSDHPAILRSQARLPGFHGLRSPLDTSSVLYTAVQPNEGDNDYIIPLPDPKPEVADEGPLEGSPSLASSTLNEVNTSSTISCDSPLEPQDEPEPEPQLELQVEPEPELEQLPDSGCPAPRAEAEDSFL
The subject of a further test is BEL7404. The experiment in a line: CellTiter-Glo luminescent cell viability assay. It is filed as cell-based. The note with it: 120 h incubation, read-out: Anti-proliferative activity IC50 BEL7404. The source says:
(§3) The in vitro antitumor activity of all compounds was screened against six HCC cell lines by CellTiter-Glo luminescent cell viability assay as described earlier. […] After a comprehensive assessment of PDGFR inhibition, cellular activity against HCC cells as well as potential druggability, E5 was chosen to investigate its kinase profiling, antitumor activity and molecular mechanism in the following study. […]
(§4) authenticated by using short tandem repeat (STR) matching analysis. No mycoplasma contamination was detected.
(§5) CellTiter-Glo luminescent cell viability assay
(§6) For experiments hepatocellular carcinoma cells were seeded at 4000 cells per well in 96-well plates. After overnight incubation, solution of compounds in DMSO at various concentrations were added to the cells and further incubated for 120 h. Cell viability was measured with the CellTiter-Glo Luminescent Cell Viability Assay (Promega) according to the manufacturer’s instructions. Luminescence was measured using an EnVision Multilabel Plate Reader (Perkin-Elmer). The cytotoxicity of the compounds was expressed as the percent age of luminescence relative to that of untreated cells . The concentration of compound producing 50% of cell proliferation (IC50) was calculated by nonlinear regression analysis of the response-concentration (log) curve, using the Graph-Pad Prism program package (Graph Pad Software; San Diego, CA). Results are expressed as the means of two […] experiments

The next test deals with Hep3B. The experiment in a line: CellTiter-Glo luminescent cell viability assay. Format: cell-based. The settings on record: 120 h incubation, read-out: Anti-proliferative activity IC50 Hep3B.
Text: as §3, §4, §5, §6
(In general: Cellular ATP, detected with luciferase, serves as a proxy for viable cell number.)

A further test concerns MHCC97-L. Put plainly: CellTiter-Glo luminescent cell viability assay. Format: cell-based. The settings on record: 120 h incubation, read-out: Anti-proliferative activity IC50 MHCC97-L.
Text: as §3, §4, §5, §6

In the next test the test system is QGY-7703. Put plainly: CellTiter-Glo luminescent cell viability assay. It is filed as cell-based. The settings on record: 120 h incubation, read-out: Anti-proliferative activity IC50 QGY-7703.
Text: as §3, §4, §5, §6

The test system of a further test is SMMC-7721. Put plainly: CellTiter-Glo luminescent cell viability assay. The note with it: 120 h incubation, read-out: Anti-proliferative activity IC50 SMMC-7721. Format: cell-based.
Text: as §3, §4, §5, §6

The subject of the next test is SNU368. The experiment in a line: CellTiter-Glo luminescent cell viability assay. It is filed as cell-based. The note with it: 120 h incubation, read-out: Anti-proliferative activity IC50 SNU368.
Text: as §3, §4, §5, §6

Chain of PDGFRα (P16234 24-1089): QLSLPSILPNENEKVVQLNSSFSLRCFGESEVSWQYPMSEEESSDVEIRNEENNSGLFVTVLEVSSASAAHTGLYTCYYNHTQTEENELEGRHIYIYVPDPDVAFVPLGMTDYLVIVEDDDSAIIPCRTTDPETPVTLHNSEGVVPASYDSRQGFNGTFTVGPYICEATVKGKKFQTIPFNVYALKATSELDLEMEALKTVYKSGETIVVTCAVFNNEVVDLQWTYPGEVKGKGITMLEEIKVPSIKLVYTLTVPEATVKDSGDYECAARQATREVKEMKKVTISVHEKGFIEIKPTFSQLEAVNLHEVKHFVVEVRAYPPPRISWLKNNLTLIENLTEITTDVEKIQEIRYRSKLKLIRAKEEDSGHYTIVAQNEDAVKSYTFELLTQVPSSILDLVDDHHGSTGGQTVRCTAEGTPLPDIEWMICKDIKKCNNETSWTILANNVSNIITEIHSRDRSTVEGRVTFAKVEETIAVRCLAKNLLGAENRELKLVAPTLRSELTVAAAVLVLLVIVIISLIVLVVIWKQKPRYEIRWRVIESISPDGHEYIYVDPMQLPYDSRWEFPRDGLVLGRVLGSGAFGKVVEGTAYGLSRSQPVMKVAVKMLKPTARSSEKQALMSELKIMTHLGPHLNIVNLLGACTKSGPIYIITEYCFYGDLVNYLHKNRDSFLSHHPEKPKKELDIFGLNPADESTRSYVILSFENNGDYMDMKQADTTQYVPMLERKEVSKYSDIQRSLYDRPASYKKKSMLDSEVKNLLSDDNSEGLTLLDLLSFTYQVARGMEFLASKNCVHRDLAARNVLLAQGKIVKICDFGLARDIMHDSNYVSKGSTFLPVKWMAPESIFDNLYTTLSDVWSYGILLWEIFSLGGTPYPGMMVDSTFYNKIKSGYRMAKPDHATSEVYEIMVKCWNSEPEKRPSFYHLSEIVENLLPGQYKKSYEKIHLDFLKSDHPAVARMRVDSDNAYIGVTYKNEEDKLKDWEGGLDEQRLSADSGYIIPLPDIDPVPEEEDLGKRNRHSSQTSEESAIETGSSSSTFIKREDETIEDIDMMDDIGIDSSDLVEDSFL

In general, IC50 refers to the concentration that inhibits the measured activity by half. In the case of `Cc1ccc(NC(=O)c2ccco2)cc1Oc1nccc(-c2cccc3ccccc23)n1` [C3], the “Inhibition effect (%) PDGFRα” value on PDGFRα was found to be 46.46%. For the same molecule, the “Inhibition effect (%) PDGFRβ” value on PDGFRβ is 11.61%. Further, the IC50 was found to be 39.7 µM in the test with BEL7404; 33.5 µM in the test with Hep3B; 91 µM in the test on MHCC97-L; 70.7 µM in the test on QGY-7703; 27.2 µM in the test with SMMC-7721; 37.9 µM in the test with SNU368.
With `Cc1ccc(NC(=O)c2ccncc2)cc1Oc1nccc(-c2cccnc2)n1` [A12], the “Inhibition effect (%) PDGFRα” value on PDGFRα came to 43.17%. In addition, the “Inhibition effect (%) PDGFRβ” value at PDGFRβ amounted to 31.94%. Moreover, the IC50 in the test on BEL7404 was found to be 134 µM; with Hep3B it was 130 µM; in the test on MHCC97-L, 281 µM; in the test with QGY-7703, 170 µM; in the test with SMMC-7721, 113 µM; with SNU368 it was 287 µM.
On to `Cc1ccc(C(=O)Nc2ccc(C)c(Oc3nccc(-c4ccccc4)n3)c2)cc1` [B3], for which, on PDGFRα, the “Inhibition effect (%) PDGFRα” value came out at 23.12%. In addition, the “Inhibition effect (%) PDGFRβ” value at PDGFRβ stood at 26.17%. For the same molecule, the IC50 in the test on BEL7404 came to 3.7 µM; with Hep3B, 4.6 µM; with MHCC97-L, 6.1 µM; in the test with QGY-7703, 7.3 µM; in the test with SMMC-7721, 6 µM; in the test with SNU368, 12.8 µM.
For `CC(=O)Nc1ccc(C)c(Oc2nccc(-c3cc4ccccc4n3C)n2)c1` [F1], at PDGFRα, the “Inhibition effect (%) PDGFRα” value is 6.37%. At PDGFRβ, the “Inhibition effect (%) PDGFRβ” value was determined as 2.32%. The IC50 was found to be 37.1 µM in the test on BEL7404; 31 µM in the test with Hep3B; 48.4 µM in the test with MHCC97-L; 195 µM in the test on QGY-7703; 34.5 µM in the test on SMMC-7721; 29.3 µM in the test on SNU368.
Consider `Cc1ccc(NC(=O)c2cccc([N+](=O)[O-])c2)cc1Oc1nccc(-c2ccccc2)n1` [B9], for which the “Inhibition effect (%) PDGFRα” value at PDGFRα was found to be 21.34%. Moreover, the “Inhibition effect (%) PDGFRβ” value at PDGFRβ turned out to be 19.14%. Also, the IC50 in the test with BEL7404 is 12.9 µM; with Hep3B, 83.2 µM; with MHCC97-L it was > 200 µM; with QGY-7703 it was 19.2 µM; in the test with SMMC-7721, 13.8 µM; in the test with SNU368, 16.8 µM.
As to `CC(=O)Nc1ccc(C)c(Oc2nccc(-c3cc4ccccc4o3)n2)c1` [E1], the “Inhibition effect (%) PDGFRα” value on PDGFRα was 1.56%. Moreover, the “Inhibition effect (%) PDGFRβ” value on PDGFRβ was 1.82%. The IC50 was found to be 10.1 µM in the test on BEL7404; 86.8 µM with Hep3B; 5.7 µM in the test on MHCC97-L; 0.3 µM with QGY-7703; 0.3 µM with SMMC-7721; 8.5 µM in the test on SNU368.
Turning to `Cc1ccc(NC(=O)Cc2ccccc2)cc1Oc1nccc(-c2ccccc2)n1` [B2], on PDGFRα, the “Inhibition effect (%) PDGFRα” value is listed as 21.09%. Further, on PDGFRβ, the “Inhibition effect (%) PDGFRβ” value is listed as 17.63%. For the same molecule, the IC50 with BEL7404 was found to be 14.4 µM; in the test on Hep3B, 13 µM; with MHCC97-L, 16.9 µM; in the test with QGY-7703 it was 20.6 µM; in the test on SMMC-7721, 11.7 µM; in the test on SNU368 it was 24.8 µM.
For the molecule `COc1ccc(C(=O)Nc2ccc(C)c(Oc3nccc(-c4ccccc4)n3)c2)cc1` [B5], at PDGFRα, the “Inhibition effect (%) PDGFRα” value is 1.81%. For the same molecule, the “Inhibition effect (%) PDGFRβ” value at PDGFRβ came out at 19.39%. Moreover, the IC50 in the test on BEL7404 came out at 7.9 µM; in the test with Hep3B, 9.2 µM; with MHCC97-L, 9.8 µM; in the test on QGY-7703 it was 14.9 µM; with SMMC-7721 it was 8.4 µM; with SNU368 it was 15.8 µM.
Consider `Cc1cccc(C(=O)Nc2ccc(C)c(Oc3nccc(-c4ccco4)n3)c2)c1` [D4], for which the “Inhibition effect (%) PDGFRα” value at PDGFRα stood at 45.70%. Moreover, the “Inhibition effect (%) PDGFRβ” value on PDGFRβ was determined as 46.00%. The IC50 is 4.5 µM in the test on BEL7404; 6 µM with Hep3B; 3.4 µM in the test with MHCC97-L; 7.5 µM in the test with QGY-7703; 3.7 µM with SMMC-7721; 23.2 µM in the test on SNU368.
In the case of `CC(=O)Nc1ccc(C)c(Oc2nccc(-c3cccc4ccccc34)n2)c1` [C1], the “Inhibition effect (%) PDGFRα” value at PDGFRα came to 33.27%. In addition, the “Inhibition effect (%) PDGFRβ” value at PDGFRβ amounted to 1.32%. The concentration for half-maximal inhibition (IC50) is 36.2 µM in the test on BEL7404; 32 µM in the test on Hep3B; 109 µM in the test on MHCC97-L; 91.6 µM in the test on QGY-7703; 21 µM in the test on SMMC-7721; 43 µM in the test on SNU368.
On to `COc1ccc(C(=O)Nc2ccc(C)c(Oc3nccc(-c4cccnc4)n3)c2)cc1` [A5], for which the “Inhibition effect (%) PDGFRα” value on PDGFRα is 45.20%. For the same molecule, on PDGFRβ, the “Inhibition effect (%) PDGFRβ” value is 33.70%. In addition, the IC50 with BEL7404 worked out at 15.6 µM; in the test with Hep3B it was 23.3 µM; in the test on MHCC97-L, 31.3 µM; in the test with QGY-7703, 40.5 µM; in the test on SMMC-7721, 23.5 µM; in the test on SNU368, 49.5 µM.
